Source: ChEMBL document CHEMBL1158733, “Iso-, nor-, and dinor-spiculoic acids A, polyketides from the marine sponge Plakortis zyggompha” (2005)
Activity calls are given as the source filed them. No cut-off for these calls is given here.

What was measured:
Format in all cases: functional
MDA-MB-231 = experiment: Cytotoxicity against human MDA-MB-231 cells SRB assay
HT-29 = experiment: Cytotoxicity against human HT-29 cells SRB assay
A549 = experiment: Cytotoxicity against human A549 cells SRB assay

Compound | GI50 (MDA-MB-231) | GI50 (HT-29) | GI50 (A549) | Activity (MDA-MB-231) | Activity (HT-29) | Activity (A549)
CCC1=C[C@](/C=C/c2ccccc2)(CC)[C@@](CC)(C(=O)O)[C@H]2[C@H]1[C@@H](CC)C(=O)[C@@H]2C [ISOSPICULOIC ACID A] | > 25 µM | 15 µM | 15 µM |  |  | 
CCC1=C[C@](/C=C/c2ccccc2)(CC)[C@@](CC)(C(=O)O)[C@H]2[C@H]1[C@@H](C)C(=O)[C@@H]2C [NOR-SPICULOIC ACID A] | > 25 µM | 15 µM | 15 µM |  |  | 
CC[C@@]1(/C=C/c2ccccc2)C=C(C)[C@H]2[C@@H]([C@@H](C)C(=O)[C@@H]2C)[C@]1(CC)C(=O)O |  |  |  | inactive | inactive | inactive
